From the supplement of paper PMC8671470

The molecules below were run on myeloid leukemia patient primary cells Pat.15 (assay: cell viability (% survival relative to DMSO control); higher = less cytotoxic). Settings: 100 nM; 72 h.
Method in brief: (§1)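 Thawed mononuclear cells from AML or CML patients were purified on Ficoll and cultured for 72 h in RPMI 1640 with 10% FBS, at 10,000 cells/well, on 384-well plates carrying 70 pre-printed compounds at 1–10,000 nM in five tenfold steps, in duplicate. Viability came from CellTiter-Glo, normalised against DMSO and against 10 μM proteasome inhibitor. Any area under the curve given was derived from log-logistic curve fits in the drc and PharmacoGx R packages, and these fits had four parameters.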

SMILES	cell viability [%]
CCC(=O)N1CCN(c2ccc(-n3c(=O)ccc4cnc5ccc(-c6cnc7ccccc7c6)cc5c43)cc2C(F)(F)F)CC1 [Torin1]	20.2

Same assay, conditions: 1000 nM; 72 h

SMILES	cell viability [%]
O=C(C1CC1)N1CC[C@@H](C=C2NNC(=O)N2c2ccc(-c3ccc4occc4c3)cc2)C1	90.3
C[C@H](NC(=O)c1sccc1OCc1ccc(Cl)cc1)c1ccccc1	92.2
O=C(O)C1=CC(=C(c2ccc(O)c(C(=O)O)c2)c2ccc(O)c(C(=O)O)c2)C=CC1=O [Aurintricarboxylic acid]	86.6
COC(=O)[C@]12CCC(C)(C)C[C@H]1[C@H]1C(=O)C=C3[C@@]4(C)C=C(C#N)C(=O)C(C)(C)[C@@H]4CC[C@@]3(C)[C@]1(C)CC2 [Bardoxolone methyl]	69
Cc1c(-c2ccc(-c3ccccc3F)cc2)nc2ccc(F)cc2c1C(=O)O [Brequinar]	98.9
Nc1nc(Cl)nc2c1ncn2[C@H]1C[C@H](O)[C@@H](CO)O1 [Cladribine]	60.2
O=C1c2cc([N+](=O)[O-])ccc2-n2c1nc1ccccc1c2=O [GNF-Pf-3777]	87.9
C=C(C)[C@H]1Cc2c(ccc3c2O[C@@H]2COc4cc(OC)c(OC)cc4[C@@H]2C3=O)O1 [Rotenone]	24.3
Oc1ccc(Nc2nc(-c3ccc(Cl)cc3)cs2)cc1 [SKI II]	87.3
CCC(=O)N1CCN(c2ccc(-n3c(=O)ccc4cnc5ccc(-c6cnc7ccccc7c6)cc5c43)cc2C(F)(F)F)CC1 [Torin1]	14.2

Same assay, conditions: 10000 nM; 72 h

SMILES	cell viability [%]
O=C(C1CC1)N1CC[C@@H](C=C2NNC(=O)N2c2ccc(-c3ccc4occc4c3)cc2)C1	84
C[C@H](NC(=O)c1sccc1OCc1ccc(Cl)cc1)c1ccccc1	81.3
O=C(O)C1=CC(=C(c2ccc(O)c(C(=O)O)c2)c2ccc(O)c(C(=O)O)c2)C=CC1=O [Aurintricarboxylic acid]	87.3
COC(=O)[C@]12CCC(C)(C)C[C@H]1[C@H]1C(=O)C=C3[C@@]4(C)C=C(C#N)C(=O)C(C)(C)[C@@H]4CC[C@@]3(C)[C@]1(C)CC2 [Bardoxolone methyl]	0.4
Cc1c(-c2ccc(-c3ccccc3F)cc2)nc2ccc(F)cc2c1C(=O)O [Brequinar]	87.7
Nc1nc(Cl)nc2c1ncn2[C@H]1C[C@H](O)[C@@H](CO)O1 [Cladribine]	13.9
O=C1c2cc([N+](=O)[O-])ccc2-n2c1nc1ccccc1c2=O [GNF-Pf-3777]	40.2
C=C(C)[C@H]1Cc2c(ccc3c2O[C@@H]2COc4cc(OC)c(OC)cc4[C@@H]2C3=O)O1 [Rotenone]	37.6
Oc1ccc(Nc2nc(-c3ccc(Cl)cc3)cs2)cc1 [SKI II]	33.6
CCC(=O)N1CCN(c2ccc(-n3c(=O)ccc4cnc5ccc(-c6cnc7ccccc7c6)cc5c43)cc2C(F)(F)F)CC1 [Torin1]	12.1

The molecules below were run on myeloid leukemia patient primary cells Pat.4 in the same assay as above. Settings: 1 nM; 72 h.
Method in brief: as §1

SMILES	cell viability [%]
O=C(C1CC1)N1CC[C@@H](C=C2NNC(=O)N2c2ccc(-c3ccc4occc4c3)cc2)C1	79.7
C[C@H](NC(=O)c1sccc1OCc1ccc(Cl)cc1)c1ccccc1	94.6
O=C(O)C1=CC(=C(c2ccc(O)c(C(=O)O)c2)c2ccc(O)c(C(=O)O)c2)C=CC1=O [Aurintricarboxylic acid]	99.3
COC(=O)[C@]12CCC(C)(C)C[C@H]1[C@H]1C(=O)C=C3[C@@]4(C)C=C(C#N)C(=O)C(C)(C)[C@@H]4CC[C@@]3(C)[C@]1(C)CC2 [Bardoxolone methyl]	84.5
Cc1c(-c2ccc(-c3ccccc3F)cc2)nc2ccc(F)cc2c1C(=O)O [Brequinar]	0.431
Nc1nc(Cl)nc2c1ncn2[C@H]1C[C@H](O)[C@@H](CO)O1 [Cladribine]	99
O=C1c2cc([N+](=O)[O-])ccc2-n2c1nc1ccccc1c2=O [GNF-Pf-3777]	97.7
C=C(C)[C@H]1Cc2c(ccc3c2O[C@@H]2COc4cc(OC)c(OC)cc4[C@@H]2C3=O)O1 [Rotenone]	79.9
Oc1ccc(Nc2nc(-c3ccc(Cl)cc3)cs2)cc1 [SKI II]	65.6
CCC(=O)N1CCN(c2ccc(-n3c(=O)ccc4cnc5ccc(-c6cnc7ccccc7c6)cc5c43)cc2C(F)(F)F)CC1 [Torin1]	91.6

Same assay, conditions: 10 nM; 72 h

SMILES	cell viability [%]
O=C(C1CC1)N1CC[C@@H](C=C2NNC(=O)N2c2ccc(-c3ccc4occc4c3)cc2)C1	87.2
C[C@H](NC(=O)c1sccc1OCc1ccc(Cl)cc1)c1ccccc1	93.6
O=C(O)C1=CC(=C(c2ccc(O)c(C(=O)O)c2)c2ccc(O)c(C(=O)O)c2)C=CC1=O [Aurintricarboxylic acid]	81.2
COC(=O)[C@]12CCC(C)(C)C[C@H]1[C@H]1C(=O)C=C3[C@@]4(C)C=C(C#N)C(=O)C(C)(C)[C@@H]4CC[C@@]3(C)[C@]1(C)CC2 [Bardoxolone methyl]	96.4
Cc1c(-c2ccc(-c3ccccc3F)cc2)nc2ccc(F)cc2c1C(=O)O [Brequinar]	90.6
Nc1nc(Cl)nc2c1ncn2[C@H]1C[C@H](O)[C@@H](CO)O1 [Cladribine]	55.6
O=C1c2cc([N+](=O)[O-])ccc2-n2c1nc1ccccc1c2=O [GNF-Pf-3777]	97
C=C(C)[C@H]1Cc2c(ccc3c2O[C@@H]2COc4cc(OC)c(OC)cc4[C@@H]2C3=O)O1 [Rotenone]	89.3
Oc1ccc(Nc2nc(-c3ccc(Cl)cc3)cs2)cc1 [SKI II]	94.5
CCC(=O)N1CCN(c2ccc(-n3c(=O)ccc4cnc5ccc(-c6cnc7ccccc7c6)cc5c43)cc2C(F)(F)F)CC1 [Torin1]	76

Same assay, conditions: 100 nM; 72 h

SMILES	cell viability [%]
O=C(C1CC1)N1CC[C@@H](C=C2NNC(=O)N2c2ccc(-c3ccc4occc4c3)cc2)C1	90.8
C[C@H](NC(=O)c1sccc1OCc1ccc(Cl)cc1)c1ccccc1	94.1
O=C(O)C1=CC(=C(c2ccc(O)c(C(=O)O)c2)c2ccc(O)c(C(=O)O)c2)C=CC1=O [Aurintricarboxylic acid]	83.3
COC(=O)[C@]12CCC(C)(C)C[C@H]1[C@H]1C(=O)C=C3[C@@]4(C)C=C(C#N)C(=O)C(C)(C)[C@@H]4CC[C@@]3(C)[C@]1(C)CC2 [Bardoxolone methyl]	33.3
Cc1c(-c2ccc(-c3ccccc3F)cc2)nc2ccc(F)cc2c1C(=O)O [Brequinar]	94.7
Nc1nc(Cl)nc2c1ncn2[C@H]1C[C@H](O)[C@@H](CO)O1 [Cladribine]	13.5
O=C1c2cc([N+](=O)[O-])ccc2-n2c1nc1ccccc1c2=O [GNF-Pf-3777]	96
